# In article PMC4481117 (Molecular Pain, 2015):
# Test system: LFA-1 (αLβ2, CD11a/CD18)
# Experiment: Adhesion of LFA-1-expressing HEK293 cells to immobilized peptide
# Assay type: cell-based, Human
# Conditions: peptide immobilized at 10 μM, 30 min at 37 °C
# Method: Fig. 3 Adhesion of Mac-1-expressing cells to Dyn A and Dyn B. a, Mac-1-expressing and wild-type HEK293 cells were labeled with calcein and 5x10^4 cells were added to the wells coated with different concentrations of the Dyn A. After 30 min at 37 °C, nonadherent cells were removed and fluorescence was measured. The data shown are means of triplicate determinations, and error bars represent S.E. The figure is representative of 8 experiments. b , adhesion of HEK293 cells expressing Mac-1, LFA and the I-less form of Mac-1 to Dyn A and Dyn B immobilized at 10 μM was determined as described in A. c, calcein-labeled Mac-1-HEK293 cells were preincubated without or with 10 μg/ml of anti-αM mAb 44a or 1 μg/ml NIF for 15 minutes. For testing the role of glucosaminoglycans in cell adhesion, dynorphin A-coated wells were preincubated with 100 μl of 10 μg/ml of chondroitin sulfate A, chondroitin sulfate B and heparin. […]
# Adhesion assays were performed essentially as described previously. […] Fluorescence was measured in a CytoFluorII fluorescence plate reader (Perceptive Biosystems, Framingham, MA). […] After aspirating the solution, labeled cells were added and cell adhesion was analyzed as above.
structure (smiles),measurement,value
CC[C@H](C)[C@H](NC(=O)[C@H](CCCNC(=N)N)NC(=O)[C@H](CCCNC(=N)N)NC(=O)[C@H](CC(C)C)NC(=O)[C@H](Cc1ccccc1)NC(=O)CNC(=O)CNC(=O)[C@@H](N)Cc1ccc(O)cc1)C(=O)N[C@@H](CCCNC(=N)N)C(=O)N1CCC[C@H]1C(=O)N[C@@H](CCCCN)C(=O)N[C@@H](CC(C)C)C(=O)N[C@@H](CCCCN)C(=O)N[C@@H](Cc1c[nH]c2ccccc12)C(=O)N[C@@H](CC(=O)O)C(=O)N[C@@H](CC(N)=O)C(=O)N[C@@H](CCC(N)=O)C(=O)O [Dyn A],Adhesion of LFA-1-HEK293 cells,13 ± 2%
